The values below come from patent publication US10392363B2, “Methods for treating protozoan infections” (Neoculi Pty Ltd., priority 2014, dated 2019).

Data set [1] has as its system Giardia duodenalis trophozoites. The experiment in a line: Resazurin reduction assay (Example 3). The format is cell-based. The note with it: 42 hours, then 6 hours with Alamarblue. As to the method: Giardia trophozoites were grown until confluent. The media was replaced with fresh media and they were cold shocked for 40 minutes (as above). Cells were diluted to a concentration of ˜500 000 cells/ml and 100 μl were added to each well of the assay plate (except media only control). The assay was incubated in an anaerobic environment (candle jar) for 42 hours at 37° C. […] After incubation the absorbance of each sample was read at 570 and 630 nm. The percent reduction of resazurin (Alamarblue™) was calculated and data was analysed with GraphPad Prism v6 software. Assay set-up: the assay was performed in 96 well plates in a total volume of 200 μl. 100 μl of NCL812 or NCL062 (concentration of 25.6 mg/ml in DMSO) or metronidazole (concentration 5 mg/ml in DMSO) stock was added to 9.9 ml of TYI-S-33 medium, then serially diluted 1:2 in the same medium. Cells were added as above.
For orientation: Alamar Blue is a resazurin reagent that responds to reducing activity.

The subject of data set [2] is Giardia duodenalis (WB strain trophozoites). Nature of the data set: Transmission electron microscopy study. It counts as cell-based. The note with it: 6 μg/ml NCL812, 1 hour. As to the method: Samples were incubated at 37° C. for 1 hour (NCL treated) or 4 hours (Metronidazole and DMSO control) then cold shocked to detach trophozoites. Treated samples were centrifuged at 900×g for 10 minutes and washed twice with cold saline. Final cell pellet was resuspended in pre-cooled fixative (1.25% gluteraldehyde, 4% paraformaldehyde in PBS with 4% sucrose, pH 7.2) and left overnight. […] Samples were embedded in epoxy resin and stained with uranyl acetate and lead citrate before viewing on an FEI Tecnai G2 Spirit Transmission Electron Microscope.

Data set [3] can be described thus: Microsomal stability, mouse. The format is in vitro ADME. The note with it: mouse, 1 μM. The method, then: Incubation methods: The metabolic stability assay was performed by incubating each test compound (at 1 μM) with human and mouse liver microsomes (Xenotech, Lot#1210057 and 1310211, respectively) at 37° C. and 0.4 mg/mL protein concentration. The metabolic reaction was initiated by the addition of an NADPH-regenerating system (i.e. NADPH is the cofactor required for CYP450-mediated metabolism) and quenched at various time points over a 60 minute incubation period by the addition of acetonitrile containing diazepam as internal standard. Control samples (containing no NADPH) were included (and quenched at 2, 30 and 60 minutes) to monitor for potential degradation in the absence of cofactor. Analytical conditions: Instrument: Waters Micromass Xevo G2 QTOF coupled to a Waters Acquity UPLC; Detection: Positive electrospray ionisation under MSE mode; Cone Voltage 30 V; Column: Ascentis Express Amide column (50×2.1 mm, 2.7 μm); LC conditions: Gradient cycle time: 4 minutes; Injection volume: 5 μL; Flow rate: 0.4 mL/min; Mobile phase: Acetonitrile-water gradient with 0.05% formic acid Metabolite; Identification: A metabolite screen was not included in this study, however, since data was acquired using MSE mode, which allows for the simultaneous acquisition of low and high collision energy MS spectra, a post-hoc metabolite search may be conducted at a later date if warranted. […]

Data set [4] can be described thus: Exposure in male Swiss outbred mice following IV administration. It counts as in vivo. The method, then: The systemic exposures of NCL026, NCL195, NCL259 and NCL812 were studied in nonfasted male Swiss outbred mice weighing 26.2-32.1 g. Mice had access to food and water ad libitum throughout the pre- and post-dose sampling period. Each compound was administered IV via a bolus injection into the tail vein (vehicle 20% (v/v) DMSO in PEG400, 1 mL/kg dose volume, n=8 mice per compound). […] A maximum of two samples were obtained from each mouse, with samples being taken either via submandibular bleed (approximately 120 μL; conscious sampling) or terminal cardiac puncture (0.6 mL; while mice were anaesthetised using inhaled Isoflurane). No urine samples were collected as mice were housed in bedded cages during the study. Blood was collected directly into polypropylene Eppendorf tubes containing heparin as anticoagulant, and stabilisation cocktail (containing Complete® (a protease inhibitor cocktail with EDTA) and potassium fluoride) to minimise the potential for ex vivo degradation of the test compounds in blood/plasma samples. Once collected, blood samples were centrifuged immediately, supernatant plasma was removed, and stored at −80° C. until analysis by LC-MS using methods standard in the art. Each compound was administered in a vehicle composed of 20% (v/v) DMSO in PEG400. Formulations were prepared by dissolving the compounds in DMSO prior to addition of PEG400. Formulations were not filtered prior to dosing and were administered to mice within 2.5 h of preparation. […] The dose administered to each mouse was calculated on the basis of the measured concentration in the IV formulation, the dose volume and individual mouse body weight. Plasma concentration versus time data were analysed using non-compartmental methods (WinNonlin Version 6.3.0.395). Standard calculations for each pharmacokinetic parameter were calculated using standard methods in the art.

For data set [5], the system named is Trypanosoma cruzi (Tulahuen trypomastigotes expressing β-galactosidase, in L6 cells). The experiment in a line: In vitro T. cruzi assay for determination of IC50. It counts as cell-based. The note with it: Trypanosoma cruzi, TULAHUEN, L6; 96 h incubation. The procedure, abridged:
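Tulahuen T. cruzi expressing β-galactosidase, grown in L6 cells; compounds tested as seven-point serial dilutions in triplicate after removing extracellular trypomastigotes.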

Consider `N=C(N/N=C/c1ccc(Cl)cc1)N/N=C/c1ccc(Cl)cc1` [NCL812, 1,3-bis[(E)-(4-chlorophenyl)methyleneamino]guanidine], for which, in data set [1], the “metabolic activity of the trophozoites (percentage of reduction of resazurin)” value was “reduction in the metabolic activity”. For the same molecule, in data set [2], the “changes to the ultrastructure of Giardia duodenalis” value is given as “significant changes”. In data set [3], the “predicted hepatic extraction ratio (EH)” value is listed as less than 0.3. The “adverse reactions after IV dosing” value in data set [4] (IV, 5 mg/kg, one mouse) is “abnormal behaviour (frantic, hyperactive)”. For the same molecule, the AUC0-inf in data set [4] (male, Swiss outbred, mouse, in vivo, IV 5 mg/kg, values marked a, b are approximations, read-out: AUC0-inf) was 27.9 µM·h. Also, the Vd in data set [4] (male, Swiss outbred, mouse, in vivo, IV 5 mg/kg, values marked a, b are approximations, read-out: Plasma Vss) amounted to 5.9 L/kg. For the same molecule, the clearance in data set [4] (male, Swiss outbred, mouse, plasma, IV 5 mg/kg, values marked a, b are approximations, read-out: Plasma CL) worked out at 9.5 mL/min/kg. Also, in data set [4] (male, Swiss outbred, mouse, IV 5 mg/kg, plasma, value marked b is an approximation, read-out: Apparent t1/2 (converted)), the half-life is 8.2 h. Moreover, the IC50 (commonly the concentration that gives 50% inhibition) in data set [5] is greater than 11 µM.
